Test results as given in US20030166629A1, “Cyclic quaternary ammonium compounds” (priority 1999, published 2003).

Tested on: citric acid-induced cough responses
Assay: Antitussive activity against citric acid aerosol-induced cough in conscious guinea-pigs
Type: in vivo, guinea-pig
Settings: aerosol pre-treatment at 5.0 mg/ml for 5 minutes immediately before citric acid (1M) exposure, vehicle 25% ethanol, 15 minute observation period
Text: The following method is one of the general methods available to determine the antitussive activity of the compounds of the present invention.
Male albino Dunkin-Hartley strain guinea-pigs (weight 300-400 g) can be obtained from various commercial suppliers.
The method is a modification of that described by Adcock J. J., Schneider C. and Smith T. W., “Effects of Morphine and a Novel Opioid Pentapeptide BW443C, on Cough, Nociception and Ventilation in the Unanaesthetized Guinea-pig”, Br. J. Pharmacol., 93, 93-100 (1988). […]
Cylinder air is introduced into the exposure chamber at a flow rate of 1 liter/min, maintained by a needle valve and monitored by a rotameter. […]
Cough responses are induced by exposure to an aerosol of citric acid (1M) for 10 minutes. Animals are continuously monitored by trained observer, and the number of coughs are counted during a 15 minute period from commencement of the citric acid aerosol administration. […]
The three types of response are differentiated primarily by sound and visual observation. […] Each cough is marked on the Grass polygraph paper trace, and from these record numbers, frequency and time of onset of coughs are determined. […]
Quantities of drugs are weighed out and dissolved in a vehicle. […] The sequence of pre-treatment administration is determined according to a 4×4 Latin Square design. […]

## CCCCC[N+]1(C)CCCCC1C(=O)Nc1c(C)cccc1C.[I-] (stereo not shown) [N-methyl-bupivacaine iodide, 2-{[(2,6-Dimethylphenyl)amino]carbonyl}-1-methyl-1-pentylpiperidinium iodide]
  inhibition of cough responses compared with vehicle pre-treated guinea pigs: > 90%
